Data taken from patent publication US12544350B2, “Combinatorial antitumor treatment methods and related compositions, kits, and systems” (Klotho Therapeutics, Inc., priority 2021, dated 2026).

Assays:
[1] = system: cisplatin induced acute kidney injury (CI-AKI) in mice; assay: Cisplatin-induced acute kidney injury (CI-AKI) in mice, Compound 3 (Example 11); type: in vivo, female C57BL/6J mice
Description: The aim of the study was to investigate the efficacy of test compounds in the model of cisplatin induced acute kidney injury (CI-AKI) in mice. […] Serum analysis for urea (BUN) was performed on the 5th day and 9th days after cisplatin administration. The mean body weight loss per group was calculated every day of the study as percentage loss of initial (day 0) weight for each individual animal.
Study design, animal selection, handling and treatment were all in accordance with the CRO's study protocols and Institutional Animal Care and Use Guidelines. Animal treatment and serum samples preparation were conducted by the Animal Laboratory personnel at the CRO. 60 female C57BL/6J mice 9-12 weeks old were randomized by body weight and divided into 2 groups, 30 animals each. Body weights ranged from 13.9 to 22.0 g with an average body weight across all groups 17.75 g (SD=1.30; CV=7.3%). Each mouse was treated with a single dose via IP route of administration with cisplatin at the dose of 11 mg/kg on the day 0 of the study. […] The mice in Group 1 remained untreated after the cisplatin injection until the terminal sacrifice.
Cisplatin was administered without dilution as a factory-made 1 mg/ml solution for infusion at the injection volume of 11 ml/kg for the dose of 11 mg/kg. […] Only freshly prepared formulation was used for each dosing; each working formulation batch was prepared immediately prior to the administration. The working formulations were sterile filtered using 0.2 μm cellulose acetate syringe filters before injections. The dosing volume for the test compound was 5 ml/kg of body weight. The working formulations were administered as transparent clear solutions. Intraperitoneal (IP) route of administration was used in the study. Urea (BUN) was determined in the serum using a commercial kit according to the manufacturer's instructions. […] The rate of absorbance change at λ=340 nm is proportional to the urea concentration. […] Creatinine was measured using Modified Jaffe's method, without deproteinization. […]

[2] = system: cisplatin-induced acute kidney injury (CI-AKI) mouse model; assay: Cisplatin-induced acute kidney injury (CI-AKI) mouse model, Compound 22 (Example 9); type: in vivo, female C57BL/6J mice; details: for gradual recovery of mean body weight, onset: cisplatin 11 mg/kg IP day 0
Description: The aim of the study was to investigate the efficacy of test compound(s) in a (mouse) model for acute kidney injury. Specifically, the study investigated the efficacy of test compound(s) in cisplatin-induced acute kidney injury (CI-AKI) mouse model. For example, the effect of daily repeated intraperitoneal (IP) administration of Compound 22 at doses of 50 mg/kg for 7 consecutive days in four different treatment regimens on development of pathology in mice in CI-AKI model was evaluated. Serum analysis for urea (BUN) was performed on the 5th day and 12th days after cisplatin administration. The mean body weight loss per group was calculated every day of the study as percentage loss of initial (day 0) weight for each individual animal.
Study design, animal selection, handling and treatment were all in accordance with the CRO's study protocols and Institutional Animal Care and Use Guidelines. Animal treatment and serum samples preparation were conducted by the Animal Laboratory personnel at the CRO. 100 female C57BL/6J mice 11-14 weeks old were randomized by body weight and divided into five groups, 20 animals each. Body weights ranged from 16.9 to 22.5 g with an average body weight across all groups 19.54 g (SD=1.04; CV=5.3%). Each mouse was treated with a single dose via IP route of administration with cisplatin at the dose of 11 mg/kg on the day 0 of the study. The mice in Group 2 and 4 were repeatedly treated with Compound 22 at the dose of 50 mg/kg with an interval of 24 h for seven consecutive days starting from Day 2 or Day 0 of the study, respectively. […]
To induce acute kidney injury, cisplatin was administered without dilution as a factory-made 1 mg/ml solution for infusion at the injection volume of 11 ml/kg for the dose of 11 mg/kg. […] Urea (BUN) was determined in the serum using a commercial kit according to the manufacturer's instructions. […] The rate of absorbance change at λ=340 nm is proportional to the urea concentration. […]

[3] = system: cisplatin-induced acute kidney injury (AKI) in male Sprague Dawley rats; assay: Cisplatin-induced acute kidney injury (AKI) in rats, 90 minutes infusion (Example 12); type: in vivo; details: for body weight change over baseline (BWC): day 0-6, after post-treatment period, cisplatin 5 mg/kg IP
Description: The goal of this study was to assess the effect of compound 22 at the doses of 50 mg/kg and 25 mg/kg on the development of cisplatin-induced acute kidney injury (AKI) in male Sprague Dawley rats. Compound 22 was administrated repeatedly seven consecutive days by 90 minutes infusion into a jugular vein using automatic pumps. Treatment was initiated simultaneously with the single intraperitoneal (IP) administration of cisplatin at the dose of 5 mg/kg. The experimental animal's mortality was recorded daily. […] Serum analysis for Creatinine and Urea were performed on day −4th (blank), 1st, 3rd, 6th, 9th, and 12th (terminal) day of the study.
Rat's jugular vein catheterization. Rat's jugular vein catheterization procedure was performed on −3rd day of the study. All experimental animals were anesthetized prior to surgical intervention by Telazol at the dose of 40 mg/kg body weight and Xylazine at the dose of 8 mg/kg body weight. The anesthetized rat was placed onto a heated surgical platform. The surgical area was shaved and gently scrubbed with a drop of iodine in 96% ethanol solution. The skin incision (2 cm) was made on the right of the midline of the neck at the level of the clavicle using a scalpel. Dissected jugular vein, separated from the salivary and lymphatic tissues, was visualized and isolated approximately 5 mm section of the vessel. The cranial end of the vessel was tied using 4-0 silk ligatures. By micro surgical scissors an incision was made to pass the catheter into the vein approximately 20 mm towards the heart. The caudal end of the jugular vein was tied to catheter's collar with silk ligatures aimed to secure the place of catheter. The free end of catheter was tunneled subcutaneously and connected to a transcutaneous button that features an external port with a cap at the nape of the animal's neck. […] To prevent dehydration after the surgery animals were injected with 2 ml physiological saline intraperitoneal. To prevent catheter occlusion and ensure its functioning flushing 0.10-0.20 ml amount of physiological saline with anticoagulant (Heparin, 500 IU/ml) was applied. First time catheter flushing was performed immediately after catheter was properly positioned in the jugular vein and fixed there. The procedure was repeated prior to infusion start. When a catheter was not in use, it was locked. The infusion was started three days after the catheter placement.
Fluid infusion. Programmable automatic syringe pumps system allowed for a fluid infusion of delivering determined volume at the selected infusion time. After the catheter flushing animals were connected to the tether and the swivel setup permitted free movement of the animal during the infusion. The duration of infusion was 90 minutes. The volume of infusion was 10 ml/kg; infusion rate was determined automatically according to time of infusion and volume of the administrated formulation. The infusions were performed from 10 am to […] in a random order.
Drug formulation. Route and volume of administration. Cisplatin was administered without dilution as a factory-made 1 mg/ml solution for infusion at the injection volumes of 5 ml/kg which corresponded to the doses of 5 mg/kg. IP route was used for cisplatin administration in the study. Compound 22 was formulated in sterile conditions in physiological saline at the concentrations 5 mg/ml for the dose level 50 mg/kg and 2.5 mg/ml for the dose level 25 mg/kg and was administrated as true solution. All formulations were sterilized by filtration via Minisart RC 0.2 μm sterile syringe filter. Compound 22 infusion duration was 90 minutes. The administrated volume for all group was 10 ml/kg of the body weight.
Frequency and duration of the application. cisplatin was administered once on day 0 of the study, 30 min before first infusion. Compound 22 as well as vehicle was administrated 7 consecutive days (day 0-day 6) once per day.
Duration of the experimental period. […]

LLC animals = assay: Cancer treatment: survival and anti-tumor efficacy in LLC animals (Example 13); type: in vivo; details: day 15; Compound 22 (50 mg/kg), cisplatin (10 mg/kg)
From the text: Compositions, system, and/or kits of the present disclosure can be effective at treating cancer and/or tumors. For example, a treatment protocol comprising illustrative compound 22 and cisplatin, co-administered is effective as an anti-tumor treatment, in addition to compound 22 preventing/attenuating kidney damage (caused by the chemotherapeutic nephrotoxin), restoring kidney function, and/or increasing patient survival during chemotherapy. FIG. 19 illustrates the survival efficacy of Compound 22 (50 mg/kg), cisplatin (10 mg/kg), and the combination of Compound 22+cisplatin in LLC animals. The co-administration of compound 22 (an illustrative PTBA prodrug) increased the probability of survival in LLC animals at day 15 from ˜75% (cisplatin alone) to ˜95% (Compound 22+cisplatin co-administration). FIG. 20 illustrates the anti-tumor efficacy of Compound 22, cisplatin, and the combination of Compound 22+cisplatin in LLC animals. cisplatin was administered to LLC animals at day 5 and day 14 of a 21 day study. Compound 22 was co-administered (once daily) 48 hours after each dose of cisplatin, and for 6 additional, consecutive days thereafter.

[4] = 50 mg/kg IP, 5th day after the cisplatin injection

CN(C)CCOC(=O)CCCSc1ccccc1 [Compound 3, 2-(dimcthylamino)ethyl 4-(phenylsulfanyl)butanoate]
mean level of creatinine in serum compared to G1 [1, 4]: significantly less
mean level of urea in serum compared to G1 [1, 4]: significantly less
gradual recovery of mean body weight, onset ([1]; G2: 50 mg/kg IP every 24 h for seven days from Day 2, cisplatin 11 mg/kg IP day 0): beginning from the sixth day of the study

C[N+](C)(C)CCOC(=O)CCCSc1ccccc1.Cl [Compound 22, N,N,N-trimethyl-2-{[4-(phenylsulfanyl)butanoyl]oxy}ethan-1-aminium chloride]
gradual recovery of mean body weight, onset ([2]; G2-G3: 50 mg/kg IP once or twice a day, days 2-8): beginning from the fifth day of the study
mean level of urea in serum compared to G1 ([2]; G2-G5, 50 mg/kg IP, 5th day after the cisplatin injection): significantly less
gradual recovery of mean body weight, onset ([2]; G4-G5: 50 mg/kg IP once or twice a day, days 0-6): beginning from the seventh day of the study
body weight change, comparison with the cisplatin, vehicle group ([3]; 25 mg/kg): No statistical significance
histopathology scores compared to Vehicle-treated animals with cisplatin injection ([3]; 25 mg/kg): no significant difference
body weight change over baseline (BWC) ([3]; 25 mg/kg infusion once per day): −17.6%
kidney histopathology: cast deposition ([3]; 25 mg/kg, H&E, terminal day): medium
kidney histopathology: connective tissue accumulation ([3]; 25 mg/kg, H&E, terminal day): mild
kidney histopathology: glomerulonephritis ([3]; 25 mg/kg, H&E, terminal day): mild
kidney histopathology: hemorrhages ([3]; 25 mg/kg, H&E, terminal day): occasional
kidney histopathology: interstitial nephritis ([3]; 25 mg/kg, H&E, terminal day): medium/severe
kidney histopathology: loss of brush border ([3]; 25 mg/kg, H&E, terminal day): severe
kidney histopathology: loss of tubules ([3]; 25 mg/kg, H&E, terminal day): mild
kidney histopathology: necrotic loci ([3]; 25 mg/kg, H&E, terminal day): medium-frequent
kidney histopathology: tubular atrophy ([3]; 25 mg/kg, H&E, terminal day): mild
kidney histopathology: tubular dilation ([3]; 25 mg/kg, H&E, terminal day): medium
kidney histopathology: tubular epithelium flattening ([3]; 25 mg/kg, H&E, terminal day): medium/severe
kidney histopathology: tubular epithelium loss ([3]; 25 mg/kg, H&E, terminal day): medium
kidney histopathology: tubular hyperplasia ([3]; 25 mg/kg, H&E, terminal day): occasional
serum Creatinine values compared to the cisplatin, vehicle-treated group ([3]; 25 mg/kg, day 6): significant decrease
serum Urea values compared to the cisplatin, vehicle group ([3]; 25 mg/kg, day 6): significant decrease
body weight change, comparison with the cisplatin, vehicle group ([3]; 50 mg/kg): No statistical significance
histopathology scores compared to Vehicle-treated animals with cisplatin injection ([3]; 50 mg/kg): no significant difference
severity of weight loss in individual animals (frequency distribution analysis) ([3]; 50 mg/kg and 25 mg/kg, end of the study period, compared to cisplatin treatment): decreases the severity of weight loss
body weight change over baseline (BWC) ([3]; 50 mg/kg infusion once per day, survived animals): −3.9%
kidney histopathology: cast deposition ([3]; 50 mg/kg, H&E, terminal day): mild
kidney histopathology: connective tissue accumulation ([3]; 50 mg/kg, H&E, terminal day): mild
kidney histopathology: interstitial nephritis ([3]; 50 mg/kg, H&E, terminal day): mild/medium
kidney histopathology: loss of brush border ([3]; 50 mg/kg, H&E, terminal day): severe
kidney histopathology: loss of tubules ([3]; 50 mg/kg, H&E, terminal day): occasional
kidney histopathology: necrotic loci ([3]; 50 mg/kg, H&E, terminal day): occasional
kidney histopathology: tubular atrophy ([3]; 50 mg/kg, H&E, terminal day): medium/mild
kidney histopathology: tubular basophilia ([3]; 50 mg/kg, H&E, terminal day): occasional
kidney histopathology: tubular dilation ([3]; 50 mg/kg, H&E, terminal day): medium
kidney histopathology: tubular epithelium flattening ([3]; 50 mg/kg, H&E, terminal day): medium
kidney histopathology: tubular epithelium loss ([3]; 50 mg/kg, H&E, terminal day): medium
kidney histopathology: tubular epithelium vacuolation ([3]; 50 mg/kg, H&E, terminal day): occasional
kidney histopathology: tubular hyperplasia ([3]; 50 mg/kg, H&E, terminal day): occasional
serum Creatinine values compared to the cisplatin, vehicle-treated group ([3]; 50 mg/kg, day 6): significant decrease
serum Creatinine values compared to the cisplatin, vehicle-treated group ([3]; 50 mg/kg, day 9): significant decrease
serum Urea values compared to the cisplatin, vehicle group ([3]; 50 mg/kg, day 9): significant decrease
cisplatin-induced AKI development (serum Creatinine and Urea levels during infusions and post-infusion period) ([3]; both tested doses (50 mg/kg and 25 mg/kg)): prevented cisplatin-induced AKI development

N.N.[Cl][Pt][Cl] [cisplatin]
probability of survival in LLC animals (LLC animals): ~75%
